Consider four molecules from the NIST ThermoML archive (doi:10.1016/j.fluid.2016.02.028).

Numbers after ± are expanded uncertainties.

The conditions of the series: 298.15 K; 101.33 kPa; Liquid; Vibrating tube method.
As for `c1ccccc1` [benzene], the mass density was found to be 873.71 ± 2 kg/m3.
The result for `CCCCCCCCCC` [decane] reads 726.15 ± 2 kg/m3.
In the case of `CCCCCCCC` [octane] it was 698.86 ± 2 kg/m3; in that of `CCCC[N+](C)(CCCC)CCCC.O=S(=O)([N-]S(=O)(=O)C(F)(F)F)C(F)(F)F` [tributylmethylammonium bis((trifluoromethyl)sulfonyl)imide], 1261.65 ± 6 kg/m3.
